Results from patent publication US12458688B2, “Epitopes” (Scancell Limited, priority 2018, dated 2025).
Where two headings read alike, the source gives them in different places. Where no end group is shown, it is not given here. [ ]: non-standard residue; d: D form. hCit = NC(=O)NCCCC[C@H](N)C(=O)O

T1: HLA-DP4 (Homo sapiens, UniProt P04440+P20036)
T1 sequence (P20036 29-260): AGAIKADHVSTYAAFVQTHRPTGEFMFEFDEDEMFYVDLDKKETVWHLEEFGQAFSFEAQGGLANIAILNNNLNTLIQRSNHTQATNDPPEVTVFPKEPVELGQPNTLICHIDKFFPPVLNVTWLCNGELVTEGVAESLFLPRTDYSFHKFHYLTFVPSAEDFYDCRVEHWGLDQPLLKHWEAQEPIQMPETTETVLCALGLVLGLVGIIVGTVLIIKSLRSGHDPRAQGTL
T1 sequence (P04440 30-258): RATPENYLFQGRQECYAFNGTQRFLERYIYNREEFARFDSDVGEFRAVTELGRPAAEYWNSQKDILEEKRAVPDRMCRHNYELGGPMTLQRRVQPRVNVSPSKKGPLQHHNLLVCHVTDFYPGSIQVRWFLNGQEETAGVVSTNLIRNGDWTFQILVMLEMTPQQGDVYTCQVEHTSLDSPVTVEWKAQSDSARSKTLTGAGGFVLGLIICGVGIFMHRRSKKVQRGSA


Legend:
[1] = biological target: T1, HLA-DP4; assay: DP4 competition assay with biotinylated Hep B peptide; settings: inhibition of biotinylated Hep B binding to HLA-DP4; 5 fold excess test peptide, equal amount for unlabelled Hep B
Description: 2×T175 gave 2.5×10^7 B16 HHDII/DP4 (B16F1 β2M H2Ab1 dKO A35 HHDII/DP4 H7/2E9/F9 p14) cells. This was enough for 5 preps using the following protocol with Mem-PER™ Plus Membrane Protein Extraction Kit (thermo-scientific cat #89842).
5×10^6 cells were resuspended in the growth media by scraping the cells off the surface of the plate with a cell scraper and then centrifuged at 300 g for 5 mins. The cell pellet was washed with 3 ml of Cell Wash Solution and centrifuged at 300 g for 5 mins. The supernatant was removed and discarded. The cells were resuspended in 1.5 ml of Cell Wash Solution and transfer to a 2 ml centrifuge tube and centrifuged at 300 g for 5 mins. The supernatant was discarded. 0.75 ml of permeabilization buffer was added to the cell pellet and vortexed briefly to obtain a homogeneous cell suspension and incubated for 10 mins at 4° C. with constant mixing. The permeabilized cells were centrifuge for 15 mins at 16,000g before carefully removing the supernatant containing cytosolic proteins and transfering to a new tube. 0.5 ml of solubilization buffer was added to the pellet and resuspend prior to incubating at 4° C. for 30 minutes with constant mixing prior to centrifugation at 16,000g for 15 mins at 4° C. The supernatant containing solubilized membrane and membrane-associated proteins was transfered to a new tube. Aliquots were frozen at −80° C. for future use. 12.5 μl Halt™ Protease and Phosphatase Inhibitor Cocktail, EDTA-free (100X) thermo-scientific (Catalog number 78445) was added prior to freezing.
High binding plates were coated with streptavidin (Sigma S4762 at 1 mg/ml) 1/500 in PBS and incubated overnight at 4° C. The plates were blocked with 1% BSA in PBS for 4 hrs at room temp and washed 3×PBS/0.5% Tweenx. 450 μl of cell prep lysate (B16F1 B16 HHDII/DP4 H7/2E9/F9) was mixed with 50 μg test peptide (see below) or 10 μg of unlabelled Hep B peptide for 30 mins. 10 μg biotinylated Hep B peptide was added & incubated for 4 hrs at 37° C.:
Lysate/peptide mix was added to the plates at 100 μl/well and incubated for 4 hrs at room temperature. Plates were washed 3× with PBS/0.5% Tween. 100 μl per well of Leinco anti-Human HLA-DP4 clone B7/21 #H260 1 mg/ml at 1/500 dilution in 1% BSA/PBS was added and incubated for 1 hr at room temperature prior to washing 3× PBS/0.5% Tween. Goat anti-mouse lgG3-HRP at 0.5 mg/ml 1/500 100 μl per well (Invitrogen #M32607) diluted in 1% BSA/PBS) was added for 1 hr at room temperature prior to washing and adding 150 μl of TMB substrate to each well. The reaction was stopped with 50 μl of 2N H2SO4 and plates read plate at 450 nm.
To ensure that the biotinylation of Hep B had not interfered with its binding, HLA-DP4 was incubated with equal amounts of biotinylated and unlabelled Hep B peptide. Unlabelled peptide competed equally reducing binding by 47% (FIG. 53b).
The biotinylated HepB peptide was then incubated with a 5 fold excess of the unlabelled homocitrulline peptides. All peptides inhibited the binding of biotinylated Hep B to HLA-DP4 but to varying levels (FIG. 53c-e).

[2] = biological target: HLA-DP4 (human); assay: DP4 competition ELISA; competitor biotinylated Hep B peptide; 5 fold excess of unlabelled peptide
[3] = system: HLA-HHDII/DR1 mice; assay: Ex vivo IFNγ ELISpot after peptide immunisation, HHDII/DR1 mice; assay type: in vivo, mouse; settings: for IFNγ ELISpot response: 3 immunisations with CpG/MPLA, day 21
Description: (§1) C57BL/6 mice (Charles River, UK), HLA-DR4 mice (Model #4149, Taconic, USA), HLA-A2/DR1 (HHDII/DR1, Pasteur Institute), HLA-A2.1+/+HLA-DP4+/+hCD4+/+ (HLA-HHDII/DP4) transgenic mice (EM: 02221, European Mouse Mutant Archive) described in patent WO2013/017545 A1 (EMMA repository, France) were used, aged between 8 and 12 weeks. Peptides were dissolved in PBS to 1 mg/ml and then emulsified (a series of dilutions) with CpG ODN 1826 and MPLA 6 μg/mouse of each (Invivogen, UK). Peptides (25 μg/mouse) were injected subcutaneously at the base of the tail. Mice were immunised at days 1, 7 and 14 for peptide immunisation. Spleens were removed for analysis at day 21 unless stated otherwise.
(§2) ELISpot assays were performed using murine IFNγ, IL-17 and IL-10 capture and detection reagents according to the manufacturer's instructions (Mabtech, Sweden). In brief, anti-IFNγ, IL-17 and IL-10 specific antibodies were coated onto wells of 96-well Immobilin-P plate. Synthetic peptides (at various concentrations) and 5×10^5 per well splenocytes were added to wells of the plate in quadruplicate Tumour target cells were added where relevant at 5×10^4/well in triplicate and plates incubated for 40 hrs at 37° C. After incubation, captured IFNγ, IL-10 and IL-17 were detected by biotinylated anti-IFNγ, IL-10 and IL-17 antibodies and developed with a streptavidin alkaline phosphatase and chromogenic substrate. Lipopolysaccharide (LPS; 5 μg/ml) was used as a positive control. For MHC blocking studies, anti-CD4 blocking antibody (GK1.5) or anti-CD4 blocking antibody (RPA-T4) for HHDII/DP4 mice which express human CD4 and anti-CD8 blocking antibody (2.43) from Bioxcell were used at 20 μg/ml. Spots were analysed and counted using an automated plate reader (Cellular Technologies Ltd).
Screening was performed to identify potential homocitrullinated vimentin epitopes in mice. Mice were immunised with pools of homocitrullinated peptides. […] Each pool was administered as three immunisations containing 20 μg of each peptide and CpG/MPLA as an adjuvant on day 1, 8 and 15. On day 21 the mice were culled and the immune responses to each peptide within the immunising pool were assessed by ex vivo ELISpot. Given that different mouse strains have different MHC repertoires a number of strains were used for screening. Peptide responses were assessed in transgenic strains expressing human DR4 or HHDII/DR1 in a C57BL/6 background (see methods). […]
The five selected homocitrullinated Cyk8 peptides were also screened in HHDII/DR1 transgenic mice. […] Response to Cyk8 112Hcit peptide in the HHDII/DR1 mice was lost in the presence of CD8 blocking antibody but less effect of the CD4 blocking antibody was seen (FIG. 12b). […] Responses to homocitrullinated Cyk8 peptides show both CD4 and CD8 mediated responses.

[4] = system: HLA-HHDII/DP4 mice; assay: Ex vivo IFNγ ELISpot after peptide immunisation, HHDII/DP4 mice; assay type: in vivo, mouse; settings: for IFNγ ELISpot response: 3 immunisations with CpG/MPLA, day 21
Description: as §1, §2
Screening was performed to identify potential homocitrullinated ALDOA epitopes in transgenic HHDII/DP4 and HHDII/DR1 mice. Mice were immunised with pools of human homocitrullinated peptides. […] Each pool was administered as three immunisations containing 20 μg of each peptide and CpG/MPLA as an adjuvant. After 21 days the mice were culled and the immune responses to each peptide within the immunising pool were assessed by ex vivo ELISpot in HHDII/DP4 (FIG. 4b) and HHDII/DR1 mice (FIG. 4d). […] Our predictions therefore identified 3/5 peptides which could induce a T cell response. […] Of the responding peptides ALDOA 74-93 Hcit and 140-157 Hcit peptides are homologous in human and mice therefore these two peptides were selected for further investigation. Minimal IL-10 (FIG. 6b) or IL-17 (FIG. 6c) responses were seen to Aldolase peptides in HHDII/DP4 mice.
Using this combination of predictions, 5 CyK8 peptides containing homocitrulline were synthesised (Table 4). Screening was performed to identify potential homocitrullinated Cyk8 epitopes in transgenic HHDII/DP4. Mice were immunised with pools of human homocitrullinated peptides. […] Each pool was administered as three immunisations containing 20 μg of each peptide and CpG/MPLA as an adjuvant. After 21 days the mice were culled and the immune responses to each peptide within the immunising pool were assessed by ex vivo ELISpot in HHDII/DP4 (FIG. 10a). […] The responses to CyK8 101-120 Hcit, 112-131 Hcit, 182-201 Hcit, 371-388 Hcit and 381-399 Hcit immunisation were characterised for cross reactivity to the wt peptide sequence. […] Thus a key characteristic of immunogenic peptides is they express homocitrulline. All of these peptides (100%) were immunogenic. Thus a high predicted HLA-DP4 binding affinity (<30), the presence of homocitrulline residues in the core region, the peptide being amphipathic in nature with a predominantely spiral conformational structure upon 3D modelling, and the existence of homology between the mouse and human sequences defines immunogenicity. When this model was applied retrospectively to include the vimentin and ALDOA peptides 8/9 (88%) were correctly predicted. […]

[5] = splenocytes after 7 days culture

Molecule	% inhibition [2]	IFNγ ELISpot response [4]	IFNγ response in presence of CD4 blocking antibody [4, 5]	other results
IGGVILFHETLYQKADDGRP [Aldolase A 74-93 WT, reference compound]				% inhibition [1]: 27%
Cytokeratin 8 182-202 Hcit (peptide)	61%			
LEQQNKMLETKWSLLQQQKT [Cyk8 112 wt, reference compound]				IFNγ ELISpot response [3]: no specific response
DVAASEFFRSG-Hcit-YDLDF-Hcit-SP [Alpha enolase 245-264 Hcit]		stimulation of IFNγ responses	lost	
Hcit-MLET-Hcit-WSL [Cyk8 117-125Hcit]		generation of responses		IFNγ response in presence of CD8 blocking antibody [3]: lost; IFNγ ELISpot response [3]: generation of responses; IFNγ response in presence of CD4 blocking antibody [4]: not in the presence of CD4 blocking antibody; IFNγ response in presence of CD8 blocking antibody [4]: blocked
VLAAVY-Hcit-AL [Aldolase 209-217]		stimulation of IFNγ responses		cross reactivity of Hcit response to wt peptide [3]: lower reactivity; IFNγ ELISpot response [3]: strong responses; IFNγ response in presence of CD8 blocking antibody [4, 5]: lost
Aldolase A 74-93 WT (peptide)	27%			
Vimentin 116-135 WT (peptide)	48%			
YVTE-Hcit-VLAAVY-Hcit-ALSD [Aldolase 204-219 Hcit]		stimulation of IFNγ responses	partial loss of response	cross reactivity of Hcit response to wt peptide [3]: lower reactivity; IFNγ ELISpot response [3]: strong responses; cross reactivity of Hcit response to wt peptide [4]: significantly higher; IFNγ response in presence of CD8 blocking antibody [4, 5]: partial loss of response
KDGADFAKWRCVLKIGEH [Aldolase A 140-157 WT, reference compound]				% inhibition [1]: 29%
Hcit-MALDIEIATYR-Hcit-LLEGEE [Vimentin 390-408 Hcit]		stimulation of IFNγ responses	loss of response	
EELNMDLFRSTM-Hcit-PVQ-Hcit-VL [BiP 328-346 Hcit]		stimulation of IFNγ responses	loss of response	cross reactivity of Hcit response to wt peptide [4]: significantly higher
RSERLA-Hcit-YNQLLRIEEELGS [Alpha enolase 400-419 Hcit]		stimulation of IFNγ responses	lost	
GFFLLTRILTIPQ [HepB, reference compound]				% inhibition [1]: 47%
Aldolase A 140-157 WT (peptide)	29%			
EDFSETLTRA-Hcit-FEELNMDLFR [BiP 316-336 Hcit]		stimulation of IFNγ responses	loss of response	
PLRPQNYLFGCEL-Hcit-AD-Hcit- [NPM 11-27 Hcit]		stimulation of IFNγ responses	blocking of the response	IFNγ response in presence of CD8 blocking antibody [4, 5]: not with the CD8 blocking antibody
GGSLP-Hcit-VEA-Hcit-FINYV-Hcit-NCFR [NPM 258-277 Hcit]		stimulation of IFNγ responses	blocking of the response	cross reactivity of Hcit response to wt peptide [4]: significantly higher; IFNγ response in presence of CD8 blocking antibody [4, 5]: not with the CD8 blocking antibody
Aldolase A 238-256 Hcit (peptide)	73%			
Cytokeratin 8 371-388 Hcit (peptide)	72%			
[hCit]CPLL[hCit]PWALTFSYGRALQ [Aldolase A 289-307 Hcit]	45%			
